Activity calls are given as the source filed them. No cut-off for these calls is given here.
Assays:
Frequenin-2 = biological target: T1, Frequenin-2 (Drosophila melanogaster, UniProt Q9VWX8); assay: Binding affinity to drosophila NCS1 expressed in Escherichia coli BL21 (DE3) by fluorescence emission assay; settings: read-out: Kd(app)
T1 sequence (Q9VWX8 whole entry): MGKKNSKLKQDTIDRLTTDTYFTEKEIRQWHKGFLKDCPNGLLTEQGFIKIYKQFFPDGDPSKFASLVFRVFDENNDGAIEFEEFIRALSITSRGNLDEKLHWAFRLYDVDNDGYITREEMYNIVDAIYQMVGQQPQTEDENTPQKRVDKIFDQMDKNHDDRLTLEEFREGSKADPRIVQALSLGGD

[1] = biological target: T2, Frequenin-2 (Drosophila melanogaster) (UniProt Q9VWX8); assay: Binding affinity to drosophila NCS1 expressed in Escherichia coli BL21 (DE3) by STD-NMR method
T2 sequence (whole entry): T1 sequence (Q9VWX8 whole entry)

[2] = biological target: Neuronal calcium sensor 1/Synembryn-A (Homo sapiens) (UniProt P62166+Q9NPQ8); assay: Inhibition of human NCS1 and V5-tagged Ric8a interaction expressed in HEK293 cells at 20 uM after 24 hrs by Western blot analysis relative to control; assay type: cell-based
Chain of Neuronal calcium sensor 1/Synembryn-A (Homo sapiens) (P62166 whole entry, looked up): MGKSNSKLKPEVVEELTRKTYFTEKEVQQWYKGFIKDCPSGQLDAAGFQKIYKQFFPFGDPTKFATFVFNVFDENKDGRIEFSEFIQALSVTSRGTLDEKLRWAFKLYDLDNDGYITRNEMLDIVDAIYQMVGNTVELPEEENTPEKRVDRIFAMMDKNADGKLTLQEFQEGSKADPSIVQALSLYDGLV
Chain of Neuronal calcium sensor 1/Synembryn-A (Homo sapiens) (Q9NPQ8 whole entry, looked up): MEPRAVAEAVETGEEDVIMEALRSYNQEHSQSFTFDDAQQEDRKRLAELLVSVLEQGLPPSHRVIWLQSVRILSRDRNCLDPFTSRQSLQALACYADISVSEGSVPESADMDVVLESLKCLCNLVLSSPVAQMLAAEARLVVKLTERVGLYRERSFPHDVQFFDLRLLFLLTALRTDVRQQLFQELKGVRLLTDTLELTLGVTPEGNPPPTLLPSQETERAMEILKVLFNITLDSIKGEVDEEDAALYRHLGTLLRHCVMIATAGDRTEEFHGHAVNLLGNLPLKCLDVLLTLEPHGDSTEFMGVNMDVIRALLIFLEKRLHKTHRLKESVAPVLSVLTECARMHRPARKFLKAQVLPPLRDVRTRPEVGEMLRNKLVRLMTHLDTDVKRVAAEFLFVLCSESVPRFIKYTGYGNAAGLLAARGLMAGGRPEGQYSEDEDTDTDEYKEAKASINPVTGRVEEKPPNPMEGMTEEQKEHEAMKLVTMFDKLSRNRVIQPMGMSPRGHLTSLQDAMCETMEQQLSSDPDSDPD

[3] = biological target: Neuronal calcium sensor 1 (Homo sapiens, UniProt P62166); assay: Binding affinity to human NCS1 expressed in Escherichia coli BL21 Star (DE3) by fluorescence emission assay; settings: read-out: Kd(app)
Chain of Neuronal calcium sensor 1 (P62166 2-190 limits assumed): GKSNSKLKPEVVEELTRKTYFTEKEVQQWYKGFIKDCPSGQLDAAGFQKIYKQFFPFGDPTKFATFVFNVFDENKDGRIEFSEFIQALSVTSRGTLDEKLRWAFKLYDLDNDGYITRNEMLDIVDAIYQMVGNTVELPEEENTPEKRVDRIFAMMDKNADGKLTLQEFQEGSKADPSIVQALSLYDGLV

| Kd (Frequenin-2) [µM] | Activity [1] | inhibition [2] [%] | Kd [3] [µM] | Compound |
| --- | --- | --- | --- | --- |
| 71 | Active | – | – | O=C(CN1CCCCC1)NN1c2ccccc2Sc2ccccc21 |
| – | – | 50 | – | Cc1sc(NC(=O)CNC(=O)c2ccc(F)cc2)nc1-c1ccccc1 |
| – | – | 50 | 11.5 | COc1ccccc1C(=O)Nc1nc2cc(C(F)(F)F)ccc2s1 |
| 1.13 | – | 50 | 1.25 | O=C(CC(c1ccccc1)c1ccccc1)Nc1nc2ccccc2s1 |
